In patent US20080008716A1, “Combined Pharmaceutical Composition Comprising an Anti-4-1BB Monoclonal Antibody and Chemotherapeutic Anti-Cancer Agent for Preventing and Treating Cancer Disease” (ULSAN INDUSTRIAL EDUCATION FOUNDATION, priority 2006, published 2008):

Assays:
[1] = system: B16F10 melanoma cell; experiment: Anticancer effect of anti-4-1BB antibody combined with other chemotherapeutic anti-cancer agents; tumor size and survival; conditions: for growth rate of cancer tissue / survival rate of mice / anticancer effect / activity: given simultaneously with B16F10, FIG. 3; for growth rate of cancer tissue: chemotherapeutic once (Cis 50 or 200 μg, 5-FU 800 or 10,000 μg, irinotecan 2 mg, paclitaxel 200 or 500 μg i.p.; Doxo 200 or 400 μg i.v.), antibody 100 μg, vs rat IgG control; for survival rate of mice / anticancer effect / activity: same doses as E16
Procedure: 4×10^5 cells of B16F10 melanoma cell were injected to the back of C57BL/6 mice to occur tumor in a similar method in
At the same time, 100 μg of anti-4-1BB monoclonal antibody and/or 50 or 200 μg of cisplatin, 800 or 10,000 μg of 5-fluorouracil (5-FU), 2 mg of irinotecan and 200 or 500 μg of paclitaxel (Taxel) were intraperitoneally injected into the mice once respectively and the anti-4-1BB monoclonal antibody was further injected into the peritoneal cavity at 6 times per every 5 days. 100 μg of anti-4-1BB monoclonal antibody and/or 200 or 400 μg of Doxorubicin (Doxo) were injected into the vein and an anti-4-1BB monoclonal antibody was injected into the peritoneal cavity at 6 times per every 5 days. The size of tumor and the survival rates of the mice were analyzed during the test period (See FIG. 3).

[2] = system: draining lymph node cell (CD4 and CD8 T cells); experiment: Lymphocyte repopulation: cell number, CD4 and CD8 T cells in draining lymph node of tumor-bearing mice; assay type: in vivo, C57BL/6 mice
Procedure: The ratio of immune cell in each sample was analyzed with FACScan (BD Bioscience, USA), and the number of infiltrated CD4+ CD8+ T cells in tumor tissue was calculated by following Math FIG. 1
Accordingly, it was anticipated that the sustainable treatment effect of cancer by the combined treatment with CTX and anti-4-1BB antibody would be involved in the repopulation of T cell showing anticancer activity.

[3] = system: IFN-γ; experiment: IFN-γ expression of CD4 and CD8 T cells of draining lymph node (intracellular staining, FACScan); conditions: 17th day after treating, FIG. 5a
Procedure: At 1st, 2nd, 4th, 8th, 12th, 16th, 20th, 24th days after the injection, the closest draining lymph node (inguinal lymph node) to tumor tissue in each group was isolated from the mice to determine the expression of IFN-γ (Kim Y H et al., Cell. Immunol., 238(2), pp 76˜86, 2005). To stain the IFN-γ cytokine in cell, lymph-node cell suspension was prepared from each group and the separated cells were cultured in culture medium containing Brefeldin A (BD Bioscience, USA) for 6 hours after treating with 50 ng/ml of PMA and 500 mg/ml of Ionomycin (Sigma, USA). […] The cells was then stained with anti-IFN-γ-PE (eBioscience, USA) using by Cytofix/cytoperm (BD Pharmingen, USA) with the manual of manufacturing company and analyzed with FACScan (BD Bioscience, USA).
3 mg of CTX and/or 100 μg of anti-4-1BB antibody were treated to the tumor-injected mice once and the cell was separated from the experimental group at 17th day when the cell started to launch the repopulation after treating with CTX and at 22nd day when the repopulation of the cell in lymph node was enough and the expression of IFN-γ was analyzed with FACScan (BD Bioscience, USA) with the method disclosed in Example 3.

[4] = system: B16F10 melanoma cell
Procedure: (§1) C57BL/6 male mice (Harlan Laboratories, Indianapolis, Ind.) were used as an experiment animal. The mice had been bred allowing freely accessible to water and feed and maintaining the temperature to 21±2° C. in 12 hours of light/dark cycle before use in test. B16F10(ATCC CRL-6475, USA), a melanoma cell line of mouse, was cultured in DMEM medium (Dulbeco's modified eagle's medium, GIBCO BRL, USA) containing 10% FBS (Fetal Bovine Serum; Gibco BRL, NY), 2 mM L-glutamine, 100 U/l penicillin (Invitrogen, USA) and 100 μg/ml streptomycin (Invitrogen, USA).
(§2) 4×10^5 cells of B16F10 melanoma cell were subcutaneously injected to the back of mice to occur tumor. At the same time, 100 μg of anti-4-1BB monoclonal antibody and 3 mg of CTX were intraperitoneally injected into the mice and the antibody was further injected thereto at the interval of five days. […] The size and survival rate of the mice were periodically determined.
3 mg of CTX were injected into the peritoneal cavity of the mice at 5th days and 10th days after injecting cancer cells, anti 4-1BB antibody was injected into the peritoneal cavity at 6 times per every 5 days from 5th days or 10th days after injecting cancer cells.

[5] = system: B16F10 melanoma cell; remark: listed apart in the source
Procedure: as §1, §2
At the same time, 100 μg of anti-4-1BB monoclonal antibody and 3 mg of CTX were intraperitoneally injected to the mice once and anti-4-1BB monoclonal antibody was injected into the peritoneal cavity at 6 times per every 5 days. The tumor size and the survival rates of mice were analyzed during the test period (See FIG. 1)

Structure (SMILES): N.N.[Cl][Pt][Cl] [cisplatin]
- growth rate of cancer tissue [1]: decreased in a dose dependent manner
- survival rate of mice [1]: partly increased

Structure (SMILES): O=c1[nH]cc(F)c(=O)[nH]1 [5-FU, 5-fluorouracil]
- growth rate of cancer tissue [1]: decreased in a dose dependent manner
- survival rate of mice [1]: increased

Structure (SMILES): O=P1(N(CCCl)CCCl)NCCCO1 (stereo not drawn) [CTX, cyclophosphamide]
- number of cell in lymph node ([2]; B16F10-bearing mice, FIG. 4a): temporarily been decreased
- time after injecting cancer cell at which number of cell in lymph node increased ([2]; B16F10-bearing mice, FIG. 4a): around 16 days
- level of lymph node cell number comparing with mice treated with rat IgG or anti-4-1BB ([2]; after recovery of the cell number): less than ½ to ⅕
- day after which number of CD4 and CD8 T cell was recovered to normal range ([2]; draining lymph node): > 14 days
- number of CD4 and CD8 T cell ([2]; draining lymph node, FIG. 4b, 4c): decreased
- IFN-γ expression of T cell [3]: 2 to 3%
- anti-cancer activity ([4]; treatment at 5th day after injecting cancer cell): did not show any effect on the anti-cancer activity
- growth of tumor ([4]; treatment from 10th day after injecting cancer cells, FIG. 2c): did not show any change
- survival of mice ([4]; treatment from 10th day after injecting cancer cells, FIG. 2d): did not show any change
- growing rate of tumor / growth of cancer ([5]; treatment at the same time as 4×10^5 B16F10 cells, 100 μg antibody i.p. 6 times per every 5 days, 3 mg CTX i.p. once, FIG. 1): potent inhibiting effect on the growth of cancer
- day after injecting cancer cells until which tumor size was not increased ([5]; treatment at the same time as B16F10 injection): 30 days
- survival of mice extended for ([5]; treatment at the same time as B16F10 injection, versus mice injected with only B16F10 (all died around 30th day)): 20 days

Structure (SMILES): COc1cccc2c1C(=O)c1c(O)c3c(c(O)c1C2=O)C[C@@](O)(C(=O)CO)C[C@@H]3O[C@H]1C[C@H](N)[C@H](O)[C@H](C)O1 [Doxorubicin]
- growth rate of cancer tissue [1]: had been decreased
- anticancer effect / activity [1]: strong anticancer effect in a dose dependent manner
- survival rate of mice [1]: remarkably increased

Structure (SMILES): CCc1c2c(nc3ccc(OC(=O)N4CCC(N5CCCCC5)CC4)cc13)-c1cc3c(c(=O)n1C2)COC(=O)[C@]3(O)CC [Irinotecan, irinotecan]
- time within which most of mice died ([1]; 2 mg irinotecan i.p. once): ≤ 30 days
- anticancer effect / activity [1]: strong anticancer effect in a dose dependent manner

Structure (SMILES): CC(=O)O[C@H]1C(=O)[C@@]2(C)[C@H]([C@H](OC(=O)c3ccccc3)[C@]3(O)C[C@H](OC(=O)[C@H](O)[C@@H](NC(=O)c4ccccc4)c4ccccc4)C(C)=C1C3(C)C)[C@]1(OC(C)=O)CO[C@@H]1C[C@@H]2O [Paclitaxel, paclitaxel]
- growth rate of cancer tissue [1]: slightly slowed
- anticancer effect / activity [1]: a little lower inhibiting effect of the growth of B16-F10 melanoma comparing with other anticancer agents
- survival rate of mice [1]: slightly increased
